Converted amounts (≈) assume the structure as drawn. The source made the active and inactive calls. No cut-off for these calls is given here.
What was measured:
Histone deacetylase 7 = Histone deacetylase 7 (Homo sapiens, UniProt Q8WUI4); experiment: Inhibition of HDAC7
Histone deacetylase 2 = Histone deacetylase 2 (Homo sapiens, UniProt Q92769)
PC-3 = experiment: Antiproliferative activity against human PC3 cells; type: functional, cell-based
[1] = Octanol-water distribution coefficient, log D of the compound; type: physicochemical
[2] = Solubility at pH 7; type: physicochemical; conditions: buffer
Histone deacetylase 9 = Histone deacetylase 9 (Homo sapiens, UniProt Q9UKV0); experiment: Inhibition of HDAC9
[3] = target: T1, Polyamine deacetylase HDAC10 (Homo sapiens, UniProt Q969S8); experiment: Inhibition of HDAC10
T1 sequence (Q969S8 whole entry): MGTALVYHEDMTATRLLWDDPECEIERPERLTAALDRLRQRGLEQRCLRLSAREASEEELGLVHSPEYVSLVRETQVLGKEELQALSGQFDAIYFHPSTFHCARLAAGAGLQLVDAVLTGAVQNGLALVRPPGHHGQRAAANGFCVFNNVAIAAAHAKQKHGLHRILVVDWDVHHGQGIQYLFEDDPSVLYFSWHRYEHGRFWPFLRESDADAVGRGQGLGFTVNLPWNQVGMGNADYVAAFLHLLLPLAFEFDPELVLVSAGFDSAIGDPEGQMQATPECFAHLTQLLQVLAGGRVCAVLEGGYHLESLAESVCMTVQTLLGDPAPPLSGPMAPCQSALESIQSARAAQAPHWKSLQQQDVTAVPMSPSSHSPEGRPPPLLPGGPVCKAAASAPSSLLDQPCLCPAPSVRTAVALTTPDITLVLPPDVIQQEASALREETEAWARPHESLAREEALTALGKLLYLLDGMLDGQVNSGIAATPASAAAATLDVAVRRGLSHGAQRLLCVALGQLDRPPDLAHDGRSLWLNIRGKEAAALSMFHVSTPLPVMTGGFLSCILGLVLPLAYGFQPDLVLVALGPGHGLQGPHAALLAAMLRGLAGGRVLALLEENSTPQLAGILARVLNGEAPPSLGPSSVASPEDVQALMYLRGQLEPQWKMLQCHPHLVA

[4] = Half life in human liver microsome; type: ADME; conditions: liver microsomes
A2780 = experiment: Antiproliferative activity against human A2780 cells; type: functional, cell-based
[5] = Half life in rat liver microsome; type: ADME; conditions: liver microsomes
[6] = Thermodynamic solubility at pH 7.4; type: physicochemical; conditions: buffer, read-out: Therm_solubility
Histone deacetylase 1 [7] = target: T2, Histone deacetylase 1 (Homo sapiens, UniProt Q13547); experiment: Inhibition of HDAC1 in human COLO205 cells assessed as induction of histone H3 acetylation at 10 uM by Western-immuno blotting; type: cell-based; conditions: COLO 205
[8] = Half life in mouse liver microsome; type: ADME; conditions: liver microsomes
Histone deacetylase 4 = Histone deacetylase 4 (Homo sapiens, UniProt P56524); experiment: Inhibition of HDAC4
Histone deacetylase 8 = target: T3, Histone deacetylase 8 (Homo sapiens, UniProt Q9BY41); experiment: Inhibition of HDAC8
T3 sequence (Q9BY41 whole entry): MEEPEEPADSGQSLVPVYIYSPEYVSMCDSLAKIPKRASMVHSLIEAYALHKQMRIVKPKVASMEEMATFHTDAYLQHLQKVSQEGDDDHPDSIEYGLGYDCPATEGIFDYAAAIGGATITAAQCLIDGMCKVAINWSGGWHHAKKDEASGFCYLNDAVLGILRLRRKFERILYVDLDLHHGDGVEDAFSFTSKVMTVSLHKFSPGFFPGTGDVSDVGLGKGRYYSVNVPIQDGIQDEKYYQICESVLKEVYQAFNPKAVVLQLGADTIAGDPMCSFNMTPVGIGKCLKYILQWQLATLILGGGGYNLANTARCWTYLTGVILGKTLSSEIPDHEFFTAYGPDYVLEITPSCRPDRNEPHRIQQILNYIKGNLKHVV

Histone deacetylase 5 = Histone deacetylase 5 (Homo sapiens, UniProt Q9UQL6); experiment: Inhibition of HDAC5
Histone deacetylase 1 [9] = target: T2, Histone deacetylase 1
Histone deacetylase 1 [10] = target: T2, Histone deacetylase 1; remark: listed apart in the source
HCT-116 = experiment: Antiproliferative activity against human HCT116 cells; type: functional, cell-based
Histone deacetylase 11 = target: T4, Histone deacetylase 11 (Homo sapiens, UniProt Q96DB2); experiment: Inhibition of HDAC11
T4 sequence (Q96DB2 whole entry): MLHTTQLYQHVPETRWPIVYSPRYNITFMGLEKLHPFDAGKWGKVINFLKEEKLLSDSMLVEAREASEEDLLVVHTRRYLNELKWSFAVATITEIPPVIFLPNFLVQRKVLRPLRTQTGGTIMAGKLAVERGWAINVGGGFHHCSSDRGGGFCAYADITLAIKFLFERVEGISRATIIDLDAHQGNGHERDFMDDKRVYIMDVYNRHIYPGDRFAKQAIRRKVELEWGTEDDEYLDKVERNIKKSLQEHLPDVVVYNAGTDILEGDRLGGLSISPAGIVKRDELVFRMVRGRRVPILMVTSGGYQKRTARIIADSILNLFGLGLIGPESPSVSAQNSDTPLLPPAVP

[11] = target: T5, Protein deacetylase HDAC6 (Homo sapiens, UniProt Q9UBN7); experiment: Inhibition of HDAC6
T5 sequence (Q9UBN7 whole entry): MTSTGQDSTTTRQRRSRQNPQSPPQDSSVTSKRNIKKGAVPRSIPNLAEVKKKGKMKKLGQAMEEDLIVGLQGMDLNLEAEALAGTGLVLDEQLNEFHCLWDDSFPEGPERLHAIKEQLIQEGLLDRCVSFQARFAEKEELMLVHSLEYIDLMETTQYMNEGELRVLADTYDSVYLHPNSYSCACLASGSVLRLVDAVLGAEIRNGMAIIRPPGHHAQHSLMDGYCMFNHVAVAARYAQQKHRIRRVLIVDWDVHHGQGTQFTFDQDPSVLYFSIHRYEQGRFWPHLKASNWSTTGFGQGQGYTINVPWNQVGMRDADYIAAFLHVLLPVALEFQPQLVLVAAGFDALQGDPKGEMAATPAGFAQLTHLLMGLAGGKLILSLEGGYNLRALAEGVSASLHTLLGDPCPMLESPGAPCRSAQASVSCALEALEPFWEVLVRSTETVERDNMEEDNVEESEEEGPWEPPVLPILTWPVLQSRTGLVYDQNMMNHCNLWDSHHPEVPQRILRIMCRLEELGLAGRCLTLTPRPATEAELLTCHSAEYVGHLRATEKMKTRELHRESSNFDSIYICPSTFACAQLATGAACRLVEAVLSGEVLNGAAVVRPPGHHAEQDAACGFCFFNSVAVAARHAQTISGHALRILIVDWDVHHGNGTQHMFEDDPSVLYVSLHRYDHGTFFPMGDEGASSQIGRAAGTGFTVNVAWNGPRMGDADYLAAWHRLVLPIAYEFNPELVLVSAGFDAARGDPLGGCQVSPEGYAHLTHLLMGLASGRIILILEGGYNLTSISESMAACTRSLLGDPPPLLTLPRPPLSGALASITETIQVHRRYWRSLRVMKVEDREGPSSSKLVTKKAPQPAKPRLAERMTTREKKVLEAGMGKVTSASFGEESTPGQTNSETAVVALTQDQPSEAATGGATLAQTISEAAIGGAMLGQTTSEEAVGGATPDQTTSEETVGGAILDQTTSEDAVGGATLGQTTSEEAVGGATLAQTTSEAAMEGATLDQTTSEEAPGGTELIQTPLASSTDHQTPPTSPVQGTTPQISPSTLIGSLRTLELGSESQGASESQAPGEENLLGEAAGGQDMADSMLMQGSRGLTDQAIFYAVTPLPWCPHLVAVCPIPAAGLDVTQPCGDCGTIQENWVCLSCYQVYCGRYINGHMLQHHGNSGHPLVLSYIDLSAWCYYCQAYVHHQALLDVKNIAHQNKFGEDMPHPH

Histone deacetylase 3 = Histone deacetylase 3 (Homo sapiens, UniProt O15379); experiment: Inhibition of HDAC3
Sequence of Histone deacetylase 3 (O15379 whole entry): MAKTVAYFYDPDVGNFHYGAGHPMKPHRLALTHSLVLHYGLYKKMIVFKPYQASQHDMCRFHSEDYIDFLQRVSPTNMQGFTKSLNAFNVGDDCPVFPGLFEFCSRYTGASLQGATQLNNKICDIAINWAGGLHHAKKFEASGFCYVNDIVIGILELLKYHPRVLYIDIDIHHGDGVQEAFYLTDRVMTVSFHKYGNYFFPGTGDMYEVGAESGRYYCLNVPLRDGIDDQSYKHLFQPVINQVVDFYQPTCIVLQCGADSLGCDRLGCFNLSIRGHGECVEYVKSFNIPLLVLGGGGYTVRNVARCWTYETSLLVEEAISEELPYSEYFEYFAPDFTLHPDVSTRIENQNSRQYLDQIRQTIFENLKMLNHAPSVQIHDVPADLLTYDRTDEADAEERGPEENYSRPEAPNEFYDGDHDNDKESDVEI

T2 sequence (Q13547 whole entry): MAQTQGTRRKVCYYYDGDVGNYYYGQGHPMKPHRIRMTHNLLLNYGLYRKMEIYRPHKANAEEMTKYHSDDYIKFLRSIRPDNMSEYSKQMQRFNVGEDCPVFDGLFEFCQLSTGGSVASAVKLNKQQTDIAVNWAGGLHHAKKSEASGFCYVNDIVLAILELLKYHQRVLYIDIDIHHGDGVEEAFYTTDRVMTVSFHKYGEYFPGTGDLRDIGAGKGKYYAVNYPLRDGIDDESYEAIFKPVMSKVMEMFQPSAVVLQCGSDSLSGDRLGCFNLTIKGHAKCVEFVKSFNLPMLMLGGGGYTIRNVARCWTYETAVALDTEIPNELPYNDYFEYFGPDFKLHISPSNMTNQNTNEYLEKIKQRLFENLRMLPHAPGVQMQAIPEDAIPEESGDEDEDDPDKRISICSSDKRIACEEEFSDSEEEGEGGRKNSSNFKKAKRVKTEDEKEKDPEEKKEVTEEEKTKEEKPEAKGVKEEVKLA
Sequence of Histone deacetylase 5 (Q9UQL6 whole entry): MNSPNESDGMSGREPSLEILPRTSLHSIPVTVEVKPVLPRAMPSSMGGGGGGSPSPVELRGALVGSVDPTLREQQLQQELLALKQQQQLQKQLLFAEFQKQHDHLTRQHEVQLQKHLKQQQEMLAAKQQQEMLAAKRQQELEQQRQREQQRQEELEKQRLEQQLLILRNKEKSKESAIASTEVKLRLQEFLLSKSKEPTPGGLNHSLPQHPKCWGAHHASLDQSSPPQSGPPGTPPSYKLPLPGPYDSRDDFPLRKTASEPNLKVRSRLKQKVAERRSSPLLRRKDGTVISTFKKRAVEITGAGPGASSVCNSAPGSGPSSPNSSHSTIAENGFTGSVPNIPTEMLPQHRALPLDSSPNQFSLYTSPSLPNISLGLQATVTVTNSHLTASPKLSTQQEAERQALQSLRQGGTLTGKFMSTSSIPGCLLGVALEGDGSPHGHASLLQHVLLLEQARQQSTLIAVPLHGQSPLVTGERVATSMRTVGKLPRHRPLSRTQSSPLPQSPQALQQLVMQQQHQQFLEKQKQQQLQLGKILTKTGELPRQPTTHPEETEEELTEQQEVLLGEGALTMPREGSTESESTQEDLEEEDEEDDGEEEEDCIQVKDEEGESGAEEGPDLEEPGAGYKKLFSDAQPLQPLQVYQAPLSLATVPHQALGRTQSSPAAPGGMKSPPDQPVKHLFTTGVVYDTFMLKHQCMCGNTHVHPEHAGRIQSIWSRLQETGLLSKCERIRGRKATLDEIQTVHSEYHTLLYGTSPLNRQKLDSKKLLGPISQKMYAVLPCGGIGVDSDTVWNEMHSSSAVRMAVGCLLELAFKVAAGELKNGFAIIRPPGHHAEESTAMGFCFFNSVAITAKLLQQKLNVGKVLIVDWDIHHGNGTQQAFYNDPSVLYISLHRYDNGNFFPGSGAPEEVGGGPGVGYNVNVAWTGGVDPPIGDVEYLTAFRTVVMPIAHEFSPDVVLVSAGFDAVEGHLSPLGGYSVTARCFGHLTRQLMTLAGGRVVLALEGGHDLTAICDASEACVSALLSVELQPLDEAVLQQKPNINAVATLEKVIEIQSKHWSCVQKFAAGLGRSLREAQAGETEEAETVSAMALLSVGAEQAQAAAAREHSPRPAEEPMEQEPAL
Sequence of Histone deacetylase 9 (Q9UKV0 whole entry): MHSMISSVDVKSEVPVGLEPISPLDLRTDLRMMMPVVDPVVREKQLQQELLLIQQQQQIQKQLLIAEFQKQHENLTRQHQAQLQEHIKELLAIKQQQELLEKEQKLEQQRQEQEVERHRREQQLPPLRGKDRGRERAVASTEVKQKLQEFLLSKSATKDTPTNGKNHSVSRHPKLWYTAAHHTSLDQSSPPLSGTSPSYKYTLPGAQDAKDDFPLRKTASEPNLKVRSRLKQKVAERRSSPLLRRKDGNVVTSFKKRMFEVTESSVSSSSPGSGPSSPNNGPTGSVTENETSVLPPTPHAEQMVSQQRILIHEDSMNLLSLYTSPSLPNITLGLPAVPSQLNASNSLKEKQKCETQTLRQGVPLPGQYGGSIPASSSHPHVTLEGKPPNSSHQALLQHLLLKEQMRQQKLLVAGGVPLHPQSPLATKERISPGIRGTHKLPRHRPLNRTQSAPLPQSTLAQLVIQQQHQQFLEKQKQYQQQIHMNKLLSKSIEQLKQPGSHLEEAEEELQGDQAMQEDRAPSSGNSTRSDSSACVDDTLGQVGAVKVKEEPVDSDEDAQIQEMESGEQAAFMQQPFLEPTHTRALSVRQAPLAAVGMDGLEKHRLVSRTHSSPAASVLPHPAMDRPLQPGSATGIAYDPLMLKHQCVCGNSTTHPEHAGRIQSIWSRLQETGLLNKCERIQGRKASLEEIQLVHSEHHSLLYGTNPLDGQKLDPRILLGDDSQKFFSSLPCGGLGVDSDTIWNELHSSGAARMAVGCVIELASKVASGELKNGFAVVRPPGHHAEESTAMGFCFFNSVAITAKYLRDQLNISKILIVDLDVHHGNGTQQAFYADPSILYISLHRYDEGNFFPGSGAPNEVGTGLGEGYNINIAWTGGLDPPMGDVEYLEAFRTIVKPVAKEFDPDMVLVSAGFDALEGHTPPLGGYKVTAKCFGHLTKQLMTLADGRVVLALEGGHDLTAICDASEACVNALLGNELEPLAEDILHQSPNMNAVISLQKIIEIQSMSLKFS
Sequence of Histone deacetylase 4 (P56524 whole entry): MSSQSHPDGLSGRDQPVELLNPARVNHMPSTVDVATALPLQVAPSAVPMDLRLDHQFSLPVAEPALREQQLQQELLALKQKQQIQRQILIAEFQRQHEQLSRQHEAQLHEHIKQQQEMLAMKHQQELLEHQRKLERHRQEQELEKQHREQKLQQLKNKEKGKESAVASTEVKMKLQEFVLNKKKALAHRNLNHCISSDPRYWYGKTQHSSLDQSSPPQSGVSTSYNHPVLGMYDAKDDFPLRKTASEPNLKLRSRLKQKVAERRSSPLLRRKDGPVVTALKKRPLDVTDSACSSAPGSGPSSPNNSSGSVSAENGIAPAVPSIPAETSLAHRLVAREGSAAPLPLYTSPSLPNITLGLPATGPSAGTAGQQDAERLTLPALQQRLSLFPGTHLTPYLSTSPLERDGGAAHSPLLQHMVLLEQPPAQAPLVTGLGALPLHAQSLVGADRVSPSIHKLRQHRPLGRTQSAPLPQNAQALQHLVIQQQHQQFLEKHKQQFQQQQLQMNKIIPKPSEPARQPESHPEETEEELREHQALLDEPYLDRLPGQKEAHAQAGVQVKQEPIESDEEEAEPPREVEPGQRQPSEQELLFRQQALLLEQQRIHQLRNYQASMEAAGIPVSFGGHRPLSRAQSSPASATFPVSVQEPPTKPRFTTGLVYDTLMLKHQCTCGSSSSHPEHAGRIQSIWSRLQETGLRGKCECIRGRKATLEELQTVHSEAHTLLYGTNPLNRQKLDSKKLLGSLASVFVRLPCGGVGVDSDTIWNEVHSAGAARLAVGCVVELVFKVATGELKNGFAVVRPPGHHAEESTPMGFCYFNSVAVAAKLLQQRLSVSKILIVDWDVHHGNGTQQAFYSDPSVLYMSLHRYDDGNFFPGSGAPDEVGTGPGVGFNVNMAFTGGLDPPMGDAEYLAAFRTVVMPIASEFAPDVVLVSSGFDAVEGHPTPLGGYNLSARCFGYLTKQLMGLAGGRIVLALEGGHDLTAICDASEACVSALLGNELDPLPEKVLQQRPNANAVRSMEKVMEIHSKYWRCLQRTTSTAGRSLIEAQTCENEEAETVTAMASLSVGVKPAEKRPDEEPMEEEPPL
Sequence of Histone deacetylase 2 (Q92769 whole entry): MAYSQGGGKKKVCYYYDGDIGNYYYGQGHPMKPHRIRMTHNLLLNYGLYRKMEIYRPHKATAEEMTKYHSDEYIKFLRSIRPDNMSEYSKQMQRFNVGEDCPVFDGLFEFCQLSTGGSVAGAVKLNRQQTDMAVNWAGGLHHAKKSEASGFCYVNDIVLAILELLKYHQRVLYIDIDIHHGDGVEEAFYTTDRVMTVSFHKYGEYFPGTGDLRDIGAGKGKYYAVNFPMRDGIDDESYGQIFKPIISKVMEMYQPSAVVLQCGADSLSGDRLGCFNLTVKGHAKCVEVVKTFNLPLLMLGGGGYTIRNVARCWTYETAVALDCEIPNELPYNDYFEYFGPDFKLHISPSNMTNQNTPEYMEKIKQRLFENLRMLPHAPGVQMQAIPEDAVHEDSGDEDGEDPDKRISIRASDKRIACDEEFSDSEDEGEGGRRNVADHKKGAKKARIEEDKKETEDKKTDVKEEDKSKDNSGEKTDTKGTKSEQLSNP

Ki (Histone deacetylase 7): 31 nM | Ki (Histone deacetylase 2): 12 nM | IC50 (PC-3): 660 nM | logD [1]: 1.72 | solubility [2]: 51 µM (≈ 19 µg/mL) | Ki (Histone deacetylase 9): 6 nM | Ki [3]: 9 nM | half-life [4]: > 60 min | IC50 (A2780): 450 nM | half-life [5]: 53 min | solubility thermodynamic [6]: 15 µg/mL (≈ 40.3 µM) | Activity (Histone deacetylase 1 [7]): Active | half-life [8]: 31 min | Ki (Histone deacetylase 4): 6 nM | Ki (Histone deacetylase 8): 315 nM | Ki (Histone deacetylase 5): 13 nM | IC50 (Histone deacetylase 1 [9]): 13 nM | Ki (Histone deacetylase 1 [9]): 8 nM | IC50 (Histone deacetylase 1 [10]): 870 nM | IC50 (HCT-116): 600 nM | Ki (Histone deacetylase 11): 9 nM | Ki [11]: 8 nM | Ki (Histone deacetylase 3): 8 nM
Compound: O=C(CCCCCNC(=O)NC(=O)c1ccc(Br)cc1)NO

From ChEMBL document CHEMBL1155491, “Acylurea connected straight chain hydroxamates as novel histone deacetylase inhibitors: Synthesis, SAR, and in vivo antitumor activity” (Bioorg Med Chem Lett, 2010)
